The compounds below were run against EP4 (Homo sapiens, UniProt P35408) (assay: EP4 Antagonism by CRE-PLAP Reporter Assay (SE302 cells, PGE2-stimulated)). Conditions: SE302 (HEK293) cells, 3 ng/mL PGE2, overnight; single or multiple assay average values.
Format: cell-based
Set-up: HEK293 cells express endogenous EP4; endogenous in cells; host or cells: SE302 (HEK293 clone with CRE-PLAP reporter)
Source text: PGE2 and [^3H]-labelled PGE2 were purchased from Cayman Chemical (Ann Arbor, Mich.) and Perkin Elmer (Waltham, Mass.), respectively. Mouse breast 4T1 cells (CRL-2539) were obtained from American Tissue Culture Collection. SE302 cell line is a clone of the HEK293 cells containing cAMP response element (CRE) promoter that when activated drives secretion of placental-like alkaline phosphatase (PLAP). HEK293 cells express endogenous EP4 and show induction of PLAP in response to PGE2 and EP4 agonists, but not EP1, 2 or 3 agonists (Chen Q, Muramoto K, Masaaki N, Ding Y, Yang H, Mackey M, Li W, Inoue Y, Ackermann K, Shrota H, Matsumoto I, Spyvee M, Schiller S, Sumida T, Gusovsky F, and Lamphier M. A novel antagonist of the prostaglandin E2 EP4 receptor inhibits Th1 differentiation and Th17 expansion and is orally active in arthritis models. British J Pharmacol, 2010, 160: 292-310). BalB/C female mice at 7-8 week age were purchased from Jackson Laboratory (Bar Harbor, Me.). Mice were maintained under specific pathogen-free conditions.
EP4 Antagonism by CRE-PLAP Reporter Assay: SE302 cells were maintained in DMEM/F12 (50:50) (MediaTech) supplemented with 10% FBS (Tissue Culture Biologicals) plus penicillin/streptomycin. When used for assays, cells were plated in a 96-well plate at 2×10^4 cells/100 μL/well in serum-free assay medium (DMEM/F12 supplemented with 0.1% BSA plus penicillin/streptomycin) and incubated for 4-6 h. Cells were then stimulated with 3 ng/mL of PGE2 in the presence or absence of various concentrations of test compound overnight, and PLAP activity was measured by mixing 15 μL of culture supernatants with 75 μL of Lumi-phos (Lumigen, Inc.) and 60 μL of assay buffer containing 8 mmol/L MgSO4 in 0.1 mol/L carbonate-bicarbonate buffer pH11 in a new 96-well black plate and incubated for 2 h at room temperature. The intensity of luminescence, which reflected the PLAP activity in the supernatant, was quantified with an Envision 2101 Multilabel Reader. Values obtained from DMSO treated samples in the presence of PGE2 were defined as 100% of control, whereas values obtained from DMSO treated samples in the absence of PGE2 were defined as 0% of control. % of control for compound treated samples was calculated as follows: (actual reading−0% of control)/(100% of control−0% of control)×100. IC50 value for each individual experiment was calculated using GraphPad Prism 6.02 (Lake Forest, Calif.) with % of control values.
Compounds of the present invention were assayed according to the methods as described above, and IC50 values, which may be single assay values or multiple assay average values, are summarized in Table 1. Compounds marked “ABS” show absolute stereochemistry.

Chain of EP4 (P35408 whole entry): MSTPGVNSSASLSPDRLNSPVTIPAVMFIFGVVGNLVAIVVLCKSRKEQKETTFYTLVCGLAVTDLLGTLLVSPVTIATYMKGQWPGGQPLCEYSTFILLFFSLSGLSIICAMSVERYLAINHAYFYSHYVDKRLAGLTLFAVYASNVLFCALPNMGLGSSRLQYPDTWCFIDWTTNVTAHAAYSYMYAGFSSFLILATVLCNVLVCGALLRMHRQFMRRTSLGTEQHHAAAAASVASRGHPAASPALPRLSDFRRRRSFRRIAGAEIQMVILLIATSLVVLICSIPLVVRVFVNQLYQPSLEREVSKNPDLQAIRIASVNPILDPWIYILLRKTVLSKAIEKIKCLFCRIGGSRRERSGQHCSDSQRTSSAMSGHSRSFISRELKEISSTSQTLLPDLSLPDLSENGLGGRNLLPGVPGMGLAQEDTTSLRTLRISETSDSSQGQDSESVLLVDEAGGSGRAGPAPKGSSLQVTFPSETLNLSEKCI

SMILES	IC50 [nM]
C[C@H](NC(=O)c1c(C(F)(F)F)nn2c1N(Cc1cccc(C(F)(F)F)c1)CC2)c1ccc(C(=O)O)cc1F [Compound 23, (S)-3-fluoro-4-(1-(6-(trifluoromethyl)-1-(3-(trifluoromethyl)benzyl)-2,3-dihydro-1H-imidazo[1,2-b]pyrazole-7-carboxamido)ethyl)benzoic Acid]	0.41
C[C@H](NC(=O)c1c(C(F)(F)F)nn2c1N(Cc1cccc(CN3CCn4nc(C(F)(F)F)c(C(=O)N[C@@H](C)c5ccc(C(=O)O)cc5)c43)c1)CC2)c1ccc(C(=O)O)cc1 [Compound 66, 4,4′-((1S,1′S)-((1,1′-(1,3-phenylenebis(methylene))bis(6-(trifluoromethyl)-2,3-dihydro-1H-imidazo[1,2-b]pyrazole-1,7-diyl-7-carbonyl))bis(azanediyl))bis(ethane-1,1-diyl))dibenzoic Acid]	35.8
C[C@H](NC(=O)c1c(C(F)(F)F)nn2c1N(Cc1cccc(C(F)(F)F)c1)CC2)c1ccc(C(=O)NC2(C#N)CC2)cc1 [Compound 101, (S)—N-(1-(4-((1-Cyanocyclopropyl)carbamoyl)phenyl)ethyl)-6-(trifluoromethyl)-1-(3-(trifluoromethyl)benzyl)-2,3-dihydro-1H-imidazo[1,2-b]pyrazole-7-carboxamide]	32.9
C[C@H](NC(=O)c1c(C(F)(F)F)nn2c1N(Cc1cccc(C(F)(F)F)c1)C[C@H]2COCc1ccccc1)c1ccc(C(=O)O)cc1 [Compound 80, 4-((S)-1-((S)-3-((benzyloxy)methyl)-6-(trifluoromethyl)-1-(3-(trifluoromethyl)benzyl)-2,3-dihydro-1H-imidazo[1,2-b]pyrazole-7-carboxamido)ethyl)benzoic Acid]	58.1
C[C@H](NC(=O)c1c(C(F)(F)F)nn2c1N(Cc1cccc(OC(F)(F)F)c1)CC2)c1ccc(C(=O)O)cc1 [Compound 11, (S)-4-(1-(1-(3-(trifluoromethoxy)benzyl)-6-(trifluoromethyl)-2,3-dihydro-1H-imidazo[1,2-b]pyrazole-7-carboxamido)ethyl)benzoic Acid]	0.41
C[C@H](NC(=O)c1c(C(F)(F)F)nn2c1N(CC1CCC(CF)CC1)CC2)c1ccc(C(=O)O)cc1 (stereo partly drawn) [Compound 78, (S)-4-(1-(1-((4-(fluoromethyl)cyclohexyl)methyl)-6-(trifluoromethyl)-2,3-dihydro-1H-imidazo[1,2-b]pyrazole-7-carboxamido)ethyl)benzoic acid]	63
C[C@H](NC(=O)c1c(C(F)(F)F)nn2c1N(Cc1ccc(I)c(C(F)(F)F)c1)CC2)c1ccc(C(=O)O)cc1 [Compound 68, (S)-4-(1-(1-(4-iodo-3-(trifluoromethyl)benzyl)-6-(trifluoromethyl)-2,3-dihydro-1H-imidazo[1,2-b]pyrazole-7-carboxamido)ethyl)benzoic acid]	10.9
C[C@H](NC(=O)c1c(C(F)(F)F)nn2c1N(Cc1ccc(C(F)(F)F)cc1)CC2)c1ccc(-c2nn[nH]n2)cc1 [Compound 37, (S)—N-(1-(4-(2H-tetrazol-5-yl)phenyl)ethyl)-6-(trifluoromethyl)-1-(4-(trifluoromethyl)benzyl)-2,3-dihydro-1H-imidazo[1,2-b]pyrazole-7-carboxamide]	0.45
C[C@H](NC(=O)c1c(C(F)(F)F)nn2c1N(Cc1cccc(C(F)(F)F)c1)CCC2)c1ccc(C(=O)O)cc1 [Compound 44, (S)-4-(1-(2-(trifluoromethyl)-4-(3-(trifluoromethyl)benzyl)-4,5,6,7-tetrahydropyrazolo[1,5-a]pyrimidine-3-carboxamido)ethyl)benzoic Acid]	6.83
C[C@H](NC(=O)c1c(C(F)(F)F)nn2c1N(Cc1cccc(C(F)(F)F)c1)CC2)c1ccc(C(=O)O)c(F)c1 [Compound 25, (S)-2-fluoro-4-(1-(6-(trifluoromethyl)-1-(3-(trifluoromethyl)benzyl)-2,3-dihydro-1H-imidazo[1,2-b]pyrazole-7-carboxamido)ethyl)benzoic acid]	1.1
C[C@H](NC(=O)c1c(-c2ccccc2)nn2c1N(Cc1cccc(C(F)(F)F)c1)CC2)c1ccc(C(=O)O)cc1 [Compound 60, (S)-4-(1-(6-phenyl-1-(3-(trifluoromethyl)benzyl)-2,3-dihydro-1H-imidazo[1,2-b]pyrazole-7-carboxamido)ethyl)benzoic Acid]	7.65
C[C@H](NC(=O)c1c(C(F)(F)F)nn2c1N(Cc1cccc(C(F)(F)F)c1)CC2)c1ccc(C(=O)O)nc1 [Compound 38, (S)-5-(1-(6-(trifluoromethyl)-1-(3-(trifluoromethyl)benzyl)-2,3-dihydro-1H-imidazo[1,2-b]pyrazole-7-carboxamido)ethyl)picolinic Acid]	17.1
C[C@H](NC(=O)c1c(C(F)F)nn2c1N(Cc1cccc(C(F)(F)F)c1)CC2)c1ccc(C(=O)O)cc1 [Compound 94, (S)-4-(1-(6-(Difluoromethyl)-1-(3-(trifluoromethyl)benzyl)-2,3-dihydro-1H-imidazo[1,2-b]pyrazole-7-carboxamido)ethyl)benzoic Acid]	0.343

Continued, values first:

IC50 [nM]	SMILES
3.19	C[C@H](NC(=O)c1c(C(F)(F)F)nn2c1N(Cc1ccc(C(F)(F)F)cc1)CC2)c1ccc(C(=O)O)cc1 [Compound 3, (S)-4-(1-(6-(trifluoromethyl)-1-(4-(trifluoromethyl)benzyl)-2,3-dihydro-1H-imidazo[1,2-b]pyrazole-7-carboxamido)ethyl)benzoic acid]
3.9	COC(=O)c1ccc([C@H](C)NC(=O)c2c(C(F)(F)F)nn3c2N(Cc2ccc(C(F)(F)F)cc2)CC3)cc1 [Compound 2, Methyl (S)-4-(1-(6-(trifluoromethyl)-1-(4-(trifluoromethyl)benzyl)-2,3-dihydro-1H-imidazo[1,2-b]pyrazole-7-carboxamido)ethyl)benzoate]
0.93	C[C@H](NC(=O)c1c(C(F)(F)F)nn2c1N(Cc1cccc(CCl)c1)CC2)c1ccc(C(=O)O)cc1 [Compound 65, (S)-4-(1-(1-(3-(chloromethyl)benzyl)-6-(trifluoromethyl)-2,3-dihydro-1H-imidazo[1,2-b]pyrazole-7-carboxamido)ethyl)benzoic acid]
1.3	C[C@H](NC(=O)c1c(C(F)(F)F)nn2c1N(Cc1ccc(Cl)c(C(F)(F)F)c1)CC2)c1ccc(C(=O)O)cc1 [Compound 63, (S)-4-(1-(1-(4-chloro-3-(trifluoromethyl)benzyl)-6-(trifluoromethyl)-2,3-dihydro-1H-imidazo[1,2-b]pyrazole-7-carboxamido)ethyl)benzoic acid]
1.49	C[C@H](NC(=O)c1c(C(F)(F)F)nn2c1N(Cc1ccc(N)cc1)CC2)c1ccc(C(=O)O)cc1 [Compound 73, (S)-4-(1-(1-(4-aminobenzyl)-6-(trifluoromethyl)-2,3-dihydro-1H-imidazo[1,2-b]pyrazole-7-carboxamido)ethyl)benzoic Acid]
1.41	COc1cccc(CN2CCn3nc(C(F)(F)F)c(C(=O)N[C@@H](C)c4ccc(C(=O)O)cc4)c32)c1 [Compound 9, (S)-4-(1-(1-(3-methoxybenzyl)-6-(trifluoromethyl)-2,3-dihydro-1H-imidazo[1,2-b]pyrazole-7-carboxamido)ethyl)benzoic Acid]
1.48	C[C@H](NC(=O)c1c(C(F)(F)F)nn2c1N(Cc1ccc(O)cc1)CC2)c1ccc(C(=O)O)cc1 [Compound 86, (S)-4-(1-(1-(4-hydroxybenzyl)-6-(trifluoromethyl)-2,3-dihydro-1H-imidazo[1,2-b]pyrazole-7-carboxamido)ethyl)benzoic Acid]
0.44	C[C@H](NC(=O)c1c(C(F)(F)F)nn2c1N(Cc1ccc(Cl)c(Cl)c1)CC2)c1ccc(C(=O)O)cc1 [Compound 13, (S)-4-(1-(1-(3,4-dichlorobenzyl)-6-(trifluoromethyl)-2,3-dihydro-1H-imidazo[1,2-b]pyrazole-7-carboxamido)ethyl)benzoic Acid]
0.99	C[C@H](NC(=O)c1c(C(F)(F)F)nn2c1N(Cc1ccc(Cl)cc1)CC2)c1ccc(C(=O)O)cc1 [Compound 31, (S)-4-(1-(1-(4-chlorobenzyl)-6-(trifluoromethyl)-2,3-dihydro-1H-imidazo[1,2-b]pyrazole-7-carboxamido)ethyl)benzoic Acid]

Source: patent US11434246B2, “EP4 antagonists” (Eisai R&D Management Co., Ltd., priority 2015, dated 2022)
